According to ChEMBL document CHEMBL1201862, “PubChem BioAssay data set” (2004):
Active and inactive are the calls of the source.

Tests used:
Genome polyprotein = Genome polyprotein (dengue virus type 2, UniProt P29990); assay: flavivirus cap methylation enzyme inhibition – biochemical, confirmation dose response, primary screen (AID 588689); format: functional
Caspase-9 = molecular target: T1, Caspase-9 (Homo sapiens, UniProt P55211); assay: inhibitors of purified CASP9 protease – biochemical, fluorescence, plate reader, cherry-picked samples, selectivity assay for caspase-6 inhibitor project, dose response (AID 743293)
T1 sequence (P55211 whole entry): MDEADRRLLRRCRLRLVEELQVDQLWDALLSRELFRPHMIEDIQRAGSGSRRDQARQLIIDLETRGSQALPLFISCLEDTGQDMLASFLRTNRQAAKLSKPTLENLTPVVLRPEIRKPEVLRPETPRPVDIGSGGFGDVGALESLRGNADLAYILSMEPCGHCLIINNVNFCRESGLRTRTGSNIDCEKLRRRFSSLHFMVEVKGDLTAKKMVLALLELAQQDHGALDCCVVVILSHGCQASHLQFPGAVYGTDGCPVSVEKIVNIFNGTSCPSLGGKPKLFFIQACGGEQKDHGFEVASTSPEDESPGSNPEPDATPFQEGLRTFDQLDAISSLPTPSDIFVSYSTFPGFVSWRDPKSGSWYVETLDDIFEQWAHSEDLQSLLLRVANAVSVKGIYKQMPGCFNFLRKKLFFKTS

Protein RecA = molecular target: T2, Protein RecA (Mycobacterium tuberculosis, UniProt P9WHJ3); assay: GFP-RecA MOA-DTT Measured in Biochemical System Using Plate Reader - 2047-05_Inhibitor_Dose_DryPowder_Activity. [Related pubchem assays (depositor defined):AID2223]; design: species or system Mycobacterium tuberculosis H37Rv
T2 sequence (P9WHJ3 whole entry): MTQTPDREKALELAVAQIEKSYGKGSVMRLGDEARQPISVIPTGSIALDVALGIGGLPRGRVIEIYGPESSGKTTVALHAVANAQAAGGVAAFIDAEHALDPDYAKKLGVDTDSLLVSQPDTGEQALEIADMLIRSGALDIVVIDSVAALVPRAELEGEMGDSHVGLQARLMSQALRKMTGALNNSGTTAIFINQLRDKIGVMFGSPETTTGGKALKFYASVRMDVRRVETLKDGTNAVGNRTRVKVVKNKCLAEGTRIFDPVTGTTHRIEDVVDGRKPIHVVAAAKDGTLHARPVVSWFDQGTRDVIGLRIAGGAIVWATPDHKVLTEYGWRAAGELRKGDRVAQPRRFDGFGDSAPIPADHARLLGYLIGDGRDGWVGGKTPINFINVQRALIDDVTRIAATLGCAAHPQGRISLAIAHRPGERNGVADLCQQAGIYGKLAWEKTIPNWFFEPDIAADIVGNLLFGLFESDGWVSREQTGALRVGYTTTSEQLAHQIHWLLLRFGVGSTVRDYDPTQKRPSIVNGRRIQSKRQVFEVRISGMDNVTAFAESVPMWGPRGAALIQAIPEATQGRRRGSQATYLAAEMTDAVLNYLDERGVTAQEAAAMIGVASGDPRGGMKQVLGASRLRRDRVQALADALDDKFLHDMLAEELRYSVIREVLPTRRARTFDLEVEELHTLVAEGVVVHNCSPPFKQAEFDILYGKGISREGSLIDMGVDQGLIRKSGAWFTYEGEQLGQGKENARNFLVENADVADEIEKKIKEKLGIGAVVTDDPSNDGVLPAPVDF

[1] = activation of miR-122 Renilla sensor silencing – cell-based, Huh7 psiCHECK-miR122, Renilla luciferase, cherry-picked, dose response (AID 651956); format: functional;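 also: huh7 hepatoma cells stably carrying a psiCHECK-2 miR-122 sensor plasmid; renilla luciferase signal reporting endogenous miR-122 activity after 48 h compound exposure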
BJ = assay: cells; format: functional, cell-based; settings: Homo sapiens
[2] = off-target signal loss in HeLa-CEM21 co-culture – HeLa F-luc CTL cells, cherry-picked, counter-screen for HIV-1 Env fusion inhibitor project, dose response (AID 652040); format: functional, cell-based;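 also: potency for signal decrease marking cytotoxic or nonspecific inhibition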
Streptokinase A = molecular target: T3, Streptokinase A (Streptococcus pyogenes serotype M1, UniProt P10520); assay: viability-normalized secreted streptokinase activity reduction – plasminogen activation absorbance, OD405, dose response (AID 1914); format: functional, Streptococcus pyogenes M1 GAS;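 also: secreted streptokinase activity via plasminogen activation per viability signal from cell pellet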
T3 sequence (P10520 whole entry): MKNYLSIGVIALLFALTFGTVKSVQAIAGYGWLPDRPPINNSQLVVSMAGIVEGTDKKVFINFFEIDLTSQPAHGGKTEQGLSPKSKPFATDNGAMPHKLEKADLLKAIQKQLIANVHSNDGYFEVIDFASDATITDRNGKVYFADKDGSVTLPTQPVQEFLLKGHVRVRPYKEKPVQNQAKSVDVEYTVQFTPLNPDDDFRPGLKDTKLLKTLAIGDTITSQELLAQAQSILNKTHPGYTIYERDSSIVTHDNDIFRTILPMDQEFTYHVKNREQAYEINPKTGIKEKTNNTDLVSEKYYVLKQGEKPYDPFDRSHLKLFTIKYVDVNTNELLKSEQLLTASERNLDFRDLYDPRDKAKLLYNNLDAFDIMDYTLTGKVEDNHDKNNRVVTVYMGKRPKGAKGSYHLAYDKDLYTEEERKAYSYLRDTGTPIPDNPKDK

Sequence of Genome polyprotein (P29990 2492-3391 limits assumed): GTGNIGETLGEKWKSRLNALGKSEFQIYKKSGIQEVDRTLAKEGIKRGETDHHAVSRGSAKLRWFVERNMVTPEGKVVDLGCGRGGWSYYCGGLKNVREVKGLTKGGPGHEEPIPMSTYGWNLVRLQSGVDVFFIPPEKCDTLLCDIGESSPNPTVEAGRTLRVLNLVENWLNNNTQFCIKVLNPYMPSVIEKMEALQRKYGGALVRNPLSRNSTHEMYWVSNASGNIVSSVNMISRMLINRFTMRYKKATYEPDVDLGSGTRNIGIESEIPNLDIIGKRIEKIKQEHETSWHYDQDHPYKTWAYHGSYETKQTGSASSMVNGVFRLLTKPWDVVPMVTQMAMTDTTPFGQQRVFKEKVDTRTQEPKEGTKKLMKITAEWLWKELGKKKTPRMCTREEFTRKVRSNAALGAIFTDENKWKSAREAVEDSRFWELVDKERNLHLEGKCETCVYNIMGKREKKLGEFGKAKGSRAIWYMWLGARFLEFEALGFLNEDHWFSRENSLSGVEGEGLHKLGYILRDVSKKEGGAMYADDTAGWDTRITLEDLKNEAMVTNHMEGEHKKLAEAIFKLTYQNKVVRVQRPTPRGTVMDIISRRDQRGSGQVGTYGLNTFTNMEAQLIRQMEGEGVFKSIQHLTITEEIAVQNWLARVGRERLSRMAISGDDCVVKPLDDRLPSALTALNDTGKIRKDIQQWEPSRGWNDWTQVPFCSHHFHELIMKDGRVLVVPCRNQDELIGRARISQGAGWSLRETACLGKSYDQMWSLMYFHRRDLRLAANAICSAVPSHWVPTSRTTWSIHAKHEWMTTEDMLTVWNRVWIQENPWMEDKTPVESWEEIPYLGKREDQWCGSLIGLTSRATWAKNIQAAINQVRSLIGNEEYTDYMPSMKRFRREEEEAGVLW

In the case of `COc1ccc(NS(=O)(=O)c2ccc3c(c2)[C@H]2C=CC[C@H]2[C@@H](c2ccc(C(=O)O)cc2)N3)cc1`, the IC50 (Genome polyprotein) is reported as 44300 nM (active).

For `Cn1nc(-c2ccccn2)nc2c(=O)n(C)c(=O)nc1-2`, the AC50 (Caspase-9) was 317 nM (active) and the AC50 (Protein RecA) was 143 nM (active).

In the case of `CCCCCCCCCCn1c2c(c(=N)c3c1CCC3)CCC2`, the AC50 [1] is reported as 5060 nM (active), the EC50 (BJ) is reported as 2460 nM (inconclusive) and the AC50 [2] is reported as 424 nM (active). For the same compound, the EC50 (Streptokinase A) was 4860 nM (active).
